Measurements published in patent US8912216B2, “Hetaryl-[1,8]naphthyridine derivatives” (Merck Patent GmbH, priority 2010, dated 2014).
pIC50: −log10 of the molar value. Where a name gives a salt, the structure may show the parent alone. Read-outs that look alike come from different tables or passages of the source.

Columns and labels:
GST-ALK5 = target: T1, GST-ALK5 (Homo sapiens, UniProt P36897); assay: In-vitro (enzyme) kinase assay, 384-well flashplate (Example 36); format: biochemical; settings: read-out: TβR activity (Example 36)
T1 sequence (P36897 34-503): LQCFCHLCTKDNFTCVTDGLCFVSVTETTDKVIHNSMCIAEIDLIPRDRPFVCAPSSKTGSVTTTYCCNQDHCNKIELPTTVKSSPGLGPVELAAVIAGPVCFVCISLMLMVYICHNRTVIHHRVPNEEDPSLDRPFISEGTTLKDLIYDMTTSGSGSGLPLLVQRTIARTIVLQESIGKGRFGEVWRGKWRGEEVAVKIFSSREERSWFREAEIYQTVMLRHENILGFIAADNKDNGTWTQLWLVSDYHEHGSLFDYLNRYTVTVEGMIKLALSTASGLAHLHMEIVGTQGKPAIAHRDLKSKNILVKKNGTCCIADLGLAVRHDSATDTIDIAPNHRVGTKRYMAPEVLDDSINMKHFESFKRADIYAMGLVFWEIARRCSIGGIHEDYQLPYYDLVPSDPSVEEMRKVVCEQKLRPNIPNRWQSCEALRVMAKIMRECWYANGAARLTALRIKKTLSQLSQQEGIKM
Description: In-vitro (Enzyme) Assay for Determination of the Efficacy of Inhibitors of the Inhibition of TGF-beta-Mediated Effects
The kinase assay was carried out as 384-well flashplate assay. 31.2 nM of GST-ALK5, 439 nM of GST-SMAD2 and 3 mM of ATP (with 0.3 μCi of ^33P-ATP/well) were incubated in a total volume of 35 μl (20 mM of HEPES, 10 mM of MgCl2, 5 mM of MnCl2, 1 mM of DTT, 0.1 of BSA, pH 7.4) without or with test substance (5-10 concentrations) at 30° C. for 45 min. The reaction was stopped using 25 μl of 200 mM EDTA solution, filtered with suction at room temperature after 30 min, and the wells were washed with 3 times 100 μl of 0.9% NaCl solution. Radioactivity was measured in the TopCount. The IC50 values were calculated using RS1.

[1] = system: TGF-beta-induced phosphorylation of Smad2 and Smad3 in Mv1-Lu cells; assay: Inhibition of Smad2/3 phosphorylation in Mv1Lu cells (Example 35A); format: cell-based, mink Mustela vison; settings: Neogale vison, read-out: TβR activity (Example 35A)
Description: Inhibition of Smad2/3 Phosphorylation in Mv1Lu Cells by TGF-bta Receptor I Kinase Inhibitors
This assay was used to determine the inhibitory potency of compounds on TGF-beta-induced phosphorylation of Smad2 (Ser465/467) and Smad3 (Ser423/425). Mv1-Lu cells (lung epithelial cell line from mink Mustela vison; ATCC number: CCL-64) were seeded in DMEM (Invitrogen) supplemented with 10% fetal bovine serum (Pan Biotech) at a defined cell density in 24-well or 96-well plates (24-well plate: 1.5×10^5 cells per well; 96-well plate: 4×10^4 cells per well). Cell cultures were incubated in DMEM at 37° C. and 10% CO2. On the next day, the medium was replaced and cells were serum-starved for 16-20 hours. The following day, serial dilutions of compounds were added to the wells, pre-incubated for 1.5 hrs before recombinant TGF-beta 1 ligand (final concentration 5 ng/ml; R&D systems) was added. After one hour of ligand stimulation, lysates were prepared and analyzed using an enzyme-linked immunosorbent assay kit (PathScan Phospho-Smad2 Kit, Cell Signaling Technologies). The ELISA detects phosphorylated Smad2 as well as phosphorylated Smad3 with the phospho-specific antibody. TGF-beta stimulated cells and unstimulated cells served as positive and negative controls (100% and background control). The concentration of the vehicle DMSO was kept constant at 0.2% (v/v) in all wells. Dose-response relationships were fitted using curve fitting algorithms of the RS1 statistics software package (Brooks Automation Inc. RS/1—Statistical Tools Handbook. Release 6.2) to determine the concentration at which half-maximal inhibition (IC50) of Smad2/3 phosphorylation was achieved.

[2] = GST-ALK5, GST-SMAD2 substrate, 3 mM ATP, 30° C., 45 min
[3] = Mv1-Lu cells, TGF-beta 1 5 ng/ml, phospho-Smad2/3 ELISA

pIC50 (GST-ALK5; [2]) | pIC50 [1, 3] | SMILES | other results
 |  | Cc1ccn(-c2cc(-c3cncc(Br)c3)c3cccnc3n2)n1 [4-(5-Bromo-pyridin-3-yl)-2-(3-methyl-pyrazol-1-yl)-[1,8]naphthyridine] | pIC50 (GST-ALK5; Table 2, intermediate, GST-ALK5 flashplate assay): < 5.00; pIC50 ([1]; Table 2, intermediate, Smad2/3 phosphorylation in Mv1-Lu cells): < 5.00
5.00 to 6.00 | 5.00 to 6.00 | Fc1ccc(Cl)cc1-c1cc(-c2cncc3ccccc23)c2ccccc2n1 [compound 1, 2-(5-Chloro-2-fluoro-phenyl)-4-isoquinolin-4-yl-quinoline] | 
6.00 to 7.00 | 5.00 to 6.00 | Fc1ccc(Cl)cc1-c1cc(-c2cncc3ccccc23)c2cccnc2n1 [compound 2, 2-(5-Chloro-2-fluoro-phenyl)-4-isoquinolin-4-yl-[1,8]naphthyridine] | 
5.00 to 6.00 | < 5.00 | Cc1cccc(-c2cc(-c3cncc4ccccc34)c3cccnc3n2)n1 [compound 3, 4-Isoquinolin-4-yl-2-(6-methyl-pyridin-2-yl)-[1,8]naphthyridine] | 
6.00 to 7.00 | 6.00 to 7.00 | Fc1ccc(Cl)cc1-c1cc(-c2cncc(-c3ccccc3)c2)c2cccnc2n1 [compound 4, 2-(5-Chloro-2-fluoro-phenyl)-4-(5-phenyl-pyridin-3-yl)-[1,8]naphthyridine] | 
6.00 to 7.00 | 5.00 to 6.00 | Cc1cccc(-c2cc(-c3cncc(-c4ccccc4)c3)c3cccnc3n2)n1 [compound 5, 2-(6-Methyl-pyridin-2-yl)-4-(5-phenyl-pyridin-3-yl)-[1,8]naphthyridine] | 
5.00 to 6.00 | < 5.00 | Fc1ccc(Cl)cc1-c1cc(-c2cncc(-c3ccccc3)c2)c2ccccc2n1 [compound 6, 2-(5-Chloro-2-fluoro-phenyl)-4-(5-phenyl-pyridin-3-yl)-quinoline] | 
> 7.00 | 6.00 to 7.00 | Cn1cc(-c2cncc(-c3cc(-c4cc(Cl)ccc4F)nc4ncccc34)c2)cn1 [compound 7, 2-(5-chloro-2-fluoro-phenyl)-4-[5-(1-methyl-1H-pyrazol-4-yl)-pyridin-3-yl]-[1,8]naphthyridine] | 
> 7.00 | 6.00 to 7.00 | Cn1cc(-c2cncc(-c3cc(-c4cc(C(F)(F)F)ccc4F)nc4ncccc34)c2)cn1 [compound 8, 2-(2-Fluoro-5-trifluoromethyl-phenyl)-4-[5-(1-methyl-1H-pyrazol-4-yl)-pyridin-3-yl]-[1,8]naphthyridine] | 
6.00 to 7.00 | 5.00 to 6.00 | Cn1cc(-c2cncc(-c3cc(-c4cccc(Cl)c4)nc4ncccc34)c2)cn1 [compound 9, 2-(3-Chloro-phenyl)-4-[5-(1-methyl-1H-pyrazol-4-yl)-pyridin-3-yl]-[1,8]naphthyridine] | 
6.00 to 7.00 | 5.00 to 6.00 | Cc1cccc(-c2cc(-c3cncc(-c4cnn(C)c4)c3)c3cccnc3n2)n1 [compound 10, 4-[5-(1-Methyl-1H-pyrazol-4-yl)-pyridin-3-yl]-2-(6-methyl-pyridin-2-yl)-[1,8]naphthyridine] | 
< 5.00 | < 5.00 | Fc1ccc(Cl)cc1-c1cc(-c2cccc(-c3ccccc3)n2)c2cccnc2n1 [compound 12, 2-(5-Chloro-2-fluoro-phenyl)-4-(6-phenyl-pyridin-2-yl)-[1,8]naphthyridine] | 
6.00 to 7.00 | 5.00 to 6.00 | Cn1cc(-c2cncc(-c3cc(-c4cccc(C(F)(F)F)c4)nc4ncccc34)c2)cn1 [compound 14, 4-[5-(1-Methyl-1H-pyrazol-4-yl)-pyridin-3-yl]-2-(3-trifluoromethyl-phenyl)-[1,8]naphthyridine] | 
> 7.00 | 6.00 to 7.00 | Cn1cc(-c2cncc(-c3cc(-c4ccccc4F)nc4ncccc34)c2)cn1 [compound 15, 2-(2-Fluoro-phenyl)-4-[5-(1-methyl-1H-pyrazol-4-yl)-pyridin-3-yl]-[1,8]naphthyridine] | 
6.00 to 7.00 | 5.00 to 6.00 | Cn1cc(-c2cncc(-c3cc(-c4ccc(F)cc4)nc4ncccc34)c2)cn1 [compound 16, 2-(4-Fluoro-phenyl)-4-[5-(1-methyl-1H-pyrazol-4-yl)-pyridin-3-yl]-[1,8]naphthyridine] | 
6.00 to 7.00 | 5.00 to 6.00 | Cn1cc(-c2cncc(-c3cc(-c4cc(F)c(F)cc4F)nc4ncccc34)c2)cn1 [compound 17, 4-[5-(1-Methyl-1H-pyrazol-4-yl)-pyridin-3-yl]-2-(2,4,5-trifluoro-phenyl)-[1,8]naphthyridine] | 
 | 6.00 to 7.00 | OCCn1cc(-c2cncc(-c3cc(-c4ccccc4F)nc4ncccc34)c2)cn1 [compound 40, 2-(4-{5-[2-(2-fluoro-phenyl)-[1,8]naphthyridin-4-yl]-pyridin-3-yl}-pyrazol-1-yl)-ethanol] | 
 | 6.00 to 7.00 | Fc1ccccc1-c1cc(-c2cncc(-c3cnn(CCN4CCOCC4)c3)c2)c2cccnc2n1 [compound 41, 2-(2-Fluoro-phenyl)-4-{5-[1-(2-morpholin-4-yl-ethyl)-1H-pyrazol-4-yl]-pyridin-3-yl}-[1,8]naphthyridine] | 
 | 6.00 to 7.00 | Fc1ccc(Cl)cc1-c1cc(-c2cncc(-c3cn(CCN4CCOCC4)nn3)c2)c2cccnc2n1 [compound 42, 2-(5-chloro-2-fluoro-phenyl)-4-{5-[1-(2-morpholin-4-yl-ethyl)-1H-[1,2,3]triazol-4-yl]-pyridin-3-yl}-[1,8]naphthyridine] | 
6.00 to 7.00 |  | CN1CCC(c2nc(-c3cncc(-c4cc(-c5ccccc5F)nc5ncccc45)c3)no2)CC1 [compound 60, 2-(2-fluoro-phenyl)-4-{5-[5-(1-methyl-piperidin-4-yl)-[1,2,4]oxadiazol-3-yl]-pyridin-3-yl}-[1,8]naphthyridine] | 
 | 5.00 to 6.00 | Cn1ccc(-c2cncc(-c3cc(-c4ccccc4F)nc4ncccc34)c2)n1 [compound 66, 2-(2-Fluoro-phenyl)-4-[5-(1-methyl-1H-pyrazol-3-yl)-pyridin-3-yl]-[1,8]naphthyridine] | 
 | 5.00 to 6.00 | Cn1nccc1-c1cncc(-c2cc(-c3ccccc3F)nc3ncccc23)c1 [compound 67, 2-(2-Fluoro-phenyl)-4-[5-(2-methyl-2H-pyrazol-3-yl)-pyridin-3-yl]-[1,8]naphthyridine] | 
6.00 to 7.00 |  | CN1CCN(c2ccnc(-c3cncc(-c4cc(-c5ccccc5F)nc5ncccc45)c3)n2)CC1 [compound 70, 2-(2-fluoro-phenyl)-4-{5-[4-(4-methyl-piperazin-1-yl)-pyrimidin-2-yl]-pyridin-3-yl}-[1,8]naphthyridine] | 

SMILES | pIC50 (GST-ALK5; [2]) | pIC50 [1, 3] | other results
Fc1ccc(Cl)cc1-c1cc(-c2cncc(-c3cnn(C4CCNCC4)c3)c2)c2cccnc2n1 [compound 11, 2-(5-chloro-2-fluoro-phenyl)-4-[5-(1-piperidin-4-yl-1H-pyrazol-4-yl)-pyridin-3-yl]-[1,8]naphthyridine dihydrochloride] | > 7.00 |  | pIC50 [1]: > 7.00
Nc1ncc(-c2cnn(C3CCNCC3)c2)cc1-c1cc(-c2cc(Cl)ccc2F)nc2ncccc12 [compound 13, 3-[2-(5-Chloro-2-fluoro-phenyl)-[1,8]naphthyridin-4-yl]-5-(1-piperidin-4-yl-1H-pyrazol-4-yl)-pyridin-2-ylamine dihydrochloride] | > 7.00 |  | pIC50 [1]: > 7.00
Fc1ccc(C(F)(F)F)cc1-c1cc(-c2cncc(-c3cnn(C4CCNCC4)c3)c2)c2cccnc2n1 [compound 18, 2-(2-Fluoro-5-trifluoromethyl-phenyl)-4-[5-(1-piperidin-4-yl-1H-pyrazol-4-yl)-pyridin-3-yl]-[1,8]naphthyridine dihydrochloride] | > 7.00 |  | pIC50 [1]: > 7.00
